Consider four molecules from ChEMBL document CHEMBL5131517 (ACS Med Chem Lett, 2022).

Broadly, the Ki is a dissociation constant, usually derived from enzyme kinetics or from competition with a known ligand. A word on the inhibition: it is the share of the control response that was lost under treatment. A word on the Emax: it is the size of the effect at its maximum, as opposed to the concentration needed.

Test [1] has as its target T1, 5-hydroxytryptamine receptor 1E (Homo sapiens, UniProt P28566). The experiment in a line: Binding affinity to 5HT1E receptor (unknown origin) assessed as inhibition constant.
Test [2] addresses GABA-A receptor; anion channel (Homo sapiens) (UniProt P14867+P47870+P18507+P28472+P48169+Q99928+Q9UN88+P34903+O00591+O14764+Q8N1C3+P18505+P78334+P47869+P31644+Q16445). The experiment in a line: Inhibition of GABA-A receptor (unknown origin). The settings on record: concentration not given here. It is filed as protein-complex assay.
Test [3] addresses D(4) dopamine receptor (Homo sapiens, UniProt P21917). The experiment in a line: Binding affinity to D4 receptor (unknown origin) assessed as inhibition constant.
In test [4] the target is Histamine H4 receptor (Homo sapiens) (UniProt Q9H3N8). The test can be described thus: Inhibition of H4 receptor (unknown origin). The settings on record: concentration not given here.
The target of test [5] is 5-hydroxytryptamine receptor 3A (Homo sapiens, UniProt P46098). The experiment in a line: Binding affinity to 5HT3 receptor (unknown origin) assessed as inhibition constant.
Test [6] deals with Sodium-dependent serotonin transporter (Homo sapiens, UniProt P31645). The test can be described thus: Binding affinity to SERT receptor (unknown origin) assessed as inhibition constant.
For test [7], the target named is T2, 5-hydroxytryptamine receptor 2B (Homo sapiens, UniProt P41595). The test can be described thus: Agonist activity at human 5HT2B receptor stably expressed in Flp-In-T-REx-293 cells assessed as increase in Gq-mediated calcium flux by Fluo-4 direct dye based FLIPR Tetra assay. It is filed as functional, cell-based. For orientation: A change in cytosolic calcium serves as a functional read-out for many receptors and channels.

Test [8] concerns the target D(3) dopamine receptor (Homo sapiens, UniProt P35462). The experiment in a line: Binding affinity to D3 receptor (unknown origin) assessed as inhibition constant.
Test [9] addresses T3, 5-hydroxytryptamine receptor 2A (Homo sapiens, UniProt P28223). The test can be described thus: Agonist activity at human 5HT2A receptor stably expressed in Flp-In-T-REx-293 cells assessed as increase in Gq-mediated calcium flux by Fluo-4 direct dye based FLIPR Tetra assay. It is filed as functional, cell-based.
Test [10] deals with 5-hydroxytryptamine receptor 5A (Homo sapiens, UniProt P47898). The test can be described thus: Binding affinity to 5HT5A receptor (unknown origin) assessed as inhibition constant.
Test [11] has as its target T2, 5-hydroxytryptamine receptor 2B. The experiment in a line: Binding affinity to 5HT2B receptor (unknown origin) assessed as inhibition constant.
Test [12] concerns the target T4, Beta-1 adrenergic receptor (Homo sapiens, UniProt P08588). The experiment in a line: Inhibition of beta1 receptor (unknown origin). The settings on record: concentration not given here.
Target sequence in this assay (P08588 whole entry, looked up): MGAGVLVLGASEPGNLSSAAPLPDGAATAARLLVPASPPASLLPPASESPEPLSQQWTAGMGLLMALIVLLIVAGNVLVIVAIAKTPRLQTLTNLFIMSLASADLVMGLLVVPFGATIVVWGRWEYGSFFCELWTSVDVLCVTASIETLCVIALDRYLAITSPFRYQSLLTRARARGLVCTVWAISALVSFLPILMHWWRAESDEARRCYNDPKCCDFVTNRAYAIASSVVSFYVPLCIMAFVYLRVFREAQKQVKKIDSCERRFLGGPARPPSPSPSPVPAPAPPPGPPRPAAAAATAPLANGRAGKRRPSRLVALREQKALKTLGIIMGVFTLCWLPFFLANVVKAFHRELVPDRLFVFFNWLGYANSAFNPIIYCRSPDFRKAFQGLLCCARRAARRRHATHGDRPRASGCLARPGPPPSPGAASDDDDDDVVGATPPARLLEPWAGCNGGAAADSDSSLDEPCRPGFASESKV
The target of test [13] is Histamine H2 receptor (Homo sapiens) (UniProt P25021). The experiment in a line: Inhibition of H2 receptor (unknown origin). The settings on record: concentration not given here.
The target of test [14] is Mu-type opioid receptor (Homo sapiens) (UniProt P35372). The test can be described thus: Inhibition of MOR receptor (unknown origin). The settings on record: concentration not given here.
Test [15] deals with T3, 5-hydroxytryptamine receptor 2A. The experiment in a line: Agonist activity at human 5HT2A receptor stably expressed in Flp-In-T-REx-293 cells assessed as maximal Gq-mediated calcium flux by Fluo-4 direct dye based FLIPR Tetra assay relative to control. It is filed as functional, cell-based. To be noted: filed as agonist.
The target of test [16] is D(4) dopamine receptor (Homo sapiens) (UniProt P21917). The experiment in a line: Inhibition of D4 receptor (unknown origin). To be noted: concentration not given here.
In test [17] the target is T4, Beta-1 adrenergic receptor. The test can be described thus: Binding affinity to beta1 receptor (unknown origin) assessed as inhibition constant.
Target sequence in this assay (P08588 whole entry): as the sequence (P08588 whole entry, looked up) above
The target of test [18] is 5-hydroxytryptamine receptor 3A (Homo sapiens) (UniProt P46098). The test can be described thus: Inhibition of 5HT3 receptor (unknown origin). The settings on record: concentration not given here.
Test [19] concerns the target Sigma non-opioid intracellular receptor 1 (Homo sapiens, UniProt Q99720). The experiment in a line: Inhibition of sigma 1 receptor (unknown origin). The settings on record: concentration not given here.
The target of test [20] is 5-hydroxytryptamine receptor 1B (Homo sapiens, UniProt P28222). The experiment in a line: Inhibition of 5HT1B receptor (unknown origin). To be noted: concentration not given here.
Test [21] concerns the target Alpha-2C adrenergic receptor (Homo sapiens, UniProt P18825). The experiment in a line: Binding affinity to alpha2c (unknown origin) assessed as inhibition constant.
For test [22], the target named is T1, 5-hydroxytryptamine receptor 1E. The experiment in a line: Inhibition of 5HT1E receptor (unknown origin). To be noted: concentration not given here.
Test [23] deals with Sigma intracellular receptor 2 (Homo sapiens, UniProt Q5BJF2). The experiment in a line: Binding affinity to sigma 2 receptor (unknown origin) assessed as inhibition constant.

Molecules are shown by their SMILES.

Histamine H2 receptor (Homo sapiens), sequence (P25021 whole entry): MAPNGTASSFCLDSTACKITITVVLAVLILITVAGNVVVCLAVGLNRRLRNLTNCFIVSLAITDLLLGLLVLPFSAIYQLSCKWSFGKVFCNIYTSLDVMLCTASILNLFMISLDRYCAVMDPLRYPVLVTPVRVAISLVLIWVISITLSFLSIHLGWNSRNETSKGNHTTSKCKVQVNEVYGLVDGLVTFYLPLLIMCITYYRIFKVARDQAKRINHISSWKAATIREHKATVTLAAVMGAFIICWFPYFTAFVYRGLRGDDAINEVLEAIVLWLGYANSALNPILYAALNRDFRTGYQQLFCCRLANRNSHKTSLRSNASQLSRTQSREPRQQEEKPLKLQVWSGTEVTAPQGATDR
T3 sequence (P28223 whole entry): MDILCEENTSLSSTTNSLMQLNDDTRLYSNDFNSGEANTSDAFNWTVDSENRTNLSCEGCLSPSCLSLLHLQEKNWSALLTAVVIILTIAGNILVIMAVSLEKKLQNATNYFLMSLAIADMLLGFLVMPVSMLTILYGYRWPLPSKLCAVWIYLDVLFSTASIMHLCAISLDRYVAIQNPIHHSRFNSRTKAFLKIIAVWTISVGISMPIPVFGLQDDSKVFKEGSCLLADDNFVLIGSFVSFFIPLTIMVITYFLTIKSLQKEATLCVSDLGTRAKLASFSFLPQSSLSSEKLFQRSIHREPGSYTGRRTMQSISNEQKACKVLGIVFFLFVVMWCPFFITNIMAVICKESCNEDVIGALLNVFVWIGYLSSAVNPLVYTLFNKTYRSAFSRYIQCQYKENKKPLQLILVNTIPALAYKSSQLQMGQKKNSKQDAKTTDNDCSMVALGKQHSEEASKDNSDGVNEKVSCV
Mu-type opioid receptor (Homo sapiens), sequence (P35372 whole entry): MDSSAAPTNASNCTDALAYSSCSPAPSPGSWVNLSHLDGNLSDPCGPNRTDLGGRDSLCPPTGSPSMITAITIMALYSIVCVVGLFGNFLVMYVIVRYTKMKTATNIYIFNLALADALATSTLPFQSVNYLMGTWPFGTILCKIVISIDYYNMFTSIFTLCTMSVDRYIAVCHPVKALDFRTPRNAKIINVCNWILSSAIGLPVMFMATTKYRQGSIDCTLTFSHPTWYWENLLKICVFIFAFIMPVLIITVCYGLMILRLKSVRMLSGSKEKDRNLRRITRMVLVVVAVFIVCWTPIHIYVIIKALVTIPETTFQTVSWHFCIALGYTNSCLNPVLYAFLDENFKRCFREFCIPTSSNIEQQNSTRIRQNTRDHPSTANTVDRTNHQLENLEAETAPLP
T1 sequence (P28566 whole entry): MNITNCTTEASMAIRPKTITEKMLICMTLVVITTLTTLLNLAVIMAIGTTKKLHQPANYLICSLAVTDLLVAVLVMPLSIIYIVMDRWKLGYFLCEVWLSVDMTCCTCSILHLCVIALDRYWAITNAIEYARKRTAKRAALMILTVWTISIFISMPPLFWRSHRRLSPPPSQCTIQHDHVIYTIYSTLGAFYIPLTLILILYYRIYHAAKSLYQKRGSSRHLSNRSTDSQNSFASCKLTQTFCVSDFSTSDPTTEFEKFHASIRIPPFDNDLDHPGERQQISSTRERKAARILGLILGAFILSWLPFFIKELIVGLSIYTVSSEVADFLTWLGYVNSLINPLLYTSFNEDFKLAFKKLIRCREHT
Histamine H4 receptor (Homo sapiens), sequence (Q9H3N8 whole entry): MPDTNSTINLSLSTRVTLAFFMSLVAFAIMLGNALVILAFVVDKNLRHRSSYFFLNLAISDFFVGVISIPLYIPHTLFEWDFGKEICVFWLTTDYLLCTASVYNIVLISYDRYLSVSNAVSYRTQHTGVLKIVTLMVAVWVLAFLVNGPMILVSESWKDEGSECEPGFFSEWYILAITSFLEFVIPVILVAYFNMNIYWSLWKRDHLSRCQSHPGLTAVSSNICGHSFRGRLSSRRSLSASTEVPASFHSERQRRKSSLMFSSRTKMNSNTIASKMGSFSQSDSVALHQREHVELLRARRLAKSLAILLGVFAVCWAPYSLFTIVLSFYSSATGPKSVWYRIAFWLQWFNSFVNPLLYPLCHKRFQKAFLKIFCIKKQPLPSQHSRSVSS
T2 sequence (P41595 whole entry): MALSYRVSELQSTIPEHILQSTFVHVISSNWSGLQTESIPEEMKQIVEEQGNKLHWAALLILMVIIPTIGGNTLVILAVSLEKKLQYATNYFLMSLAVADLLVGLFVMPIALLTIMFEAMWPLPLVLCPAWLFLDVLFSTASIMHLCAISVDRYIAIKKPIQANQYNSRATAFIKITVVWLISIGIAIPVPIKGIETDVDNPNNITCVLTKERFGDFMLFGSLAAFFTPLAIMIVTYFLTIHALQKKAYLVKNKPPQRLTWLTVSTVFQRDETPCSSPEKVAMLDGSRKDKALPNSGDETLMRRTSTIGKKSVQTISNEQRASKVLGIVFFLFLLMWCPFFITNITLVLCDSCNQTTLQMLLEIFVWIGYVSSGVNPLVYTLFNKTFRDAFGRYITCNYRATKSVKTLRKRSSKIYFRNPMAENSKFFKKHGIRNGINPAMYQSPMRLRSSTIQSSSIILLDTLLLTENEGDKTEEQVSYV
5-hydroxytryptamine receptor 5A, sequence (P47898 whole entry): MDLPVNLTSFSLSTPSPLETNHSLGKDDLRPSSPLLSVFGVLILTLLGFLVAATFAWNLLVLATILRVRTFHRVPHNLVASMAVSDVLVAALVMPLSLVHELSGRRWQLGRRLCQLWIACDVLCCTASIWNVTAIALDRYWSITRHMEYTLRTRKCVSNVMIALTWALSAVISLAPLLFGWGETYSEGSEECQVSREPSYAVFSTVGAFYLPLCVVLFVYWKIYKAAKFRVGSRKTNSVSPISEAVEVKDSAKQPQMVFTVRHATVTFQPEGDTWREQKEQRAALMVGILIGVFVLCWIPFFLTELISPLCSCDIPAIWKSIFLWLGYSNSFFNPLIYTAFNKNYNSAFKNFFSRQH
D(4) dopamine receptor, sequence (P21917 whole entry): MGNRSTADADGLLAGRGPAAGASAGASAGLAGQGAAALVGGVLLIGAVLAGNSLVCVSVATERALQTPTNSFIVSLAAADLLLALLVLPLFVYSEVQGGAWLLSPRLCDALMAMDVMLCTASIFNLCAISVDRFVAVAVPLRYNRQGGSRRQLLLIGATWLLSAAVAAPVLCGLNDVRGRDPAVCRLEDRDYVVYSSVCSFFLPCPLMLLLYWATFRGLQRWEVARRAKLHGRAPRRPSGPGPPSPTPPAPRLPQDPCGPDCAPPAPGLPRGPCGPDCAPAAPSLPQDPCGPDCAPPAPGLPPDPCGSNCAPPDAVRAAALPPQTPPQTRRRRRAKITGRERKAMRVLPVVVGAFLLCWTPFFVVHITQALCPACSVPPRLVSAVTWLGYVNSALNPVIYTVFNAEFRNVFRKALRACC
D(4) dopamine receptor (Homo sapiens), sequence (P21917 whole entry): as above
5-hydroxytryptamine receptor 3A, sequence (P46098 whole entry): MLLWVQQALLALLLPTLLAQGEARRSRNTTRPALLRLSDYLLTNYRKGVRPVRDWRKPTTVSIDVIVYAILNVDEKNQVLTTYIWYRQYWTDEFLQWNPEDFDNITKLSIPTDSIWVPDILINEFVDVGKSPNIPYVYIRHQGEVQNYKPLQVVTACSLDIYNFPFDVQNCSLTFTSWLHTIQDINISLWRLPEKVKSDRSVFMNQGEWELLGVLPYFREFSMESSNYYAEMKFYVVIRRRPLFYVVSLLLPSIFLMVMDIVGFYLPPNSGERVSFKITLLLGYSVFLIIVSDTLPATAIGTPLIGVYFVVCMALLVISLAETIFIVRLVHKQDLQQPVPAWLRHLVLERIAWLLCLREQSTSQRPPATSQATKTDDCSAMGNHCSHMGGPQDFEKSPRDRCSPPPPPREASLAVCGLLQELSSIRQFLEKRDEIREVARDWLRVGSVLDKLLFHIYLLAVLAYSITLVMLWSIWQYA
5-hydroxytryptamine receptor 3A (Homo sapiens), sequence (P46098 whole entry): as above
Alpha-2C adrenergic receptor, sequence (P18825 whole entry): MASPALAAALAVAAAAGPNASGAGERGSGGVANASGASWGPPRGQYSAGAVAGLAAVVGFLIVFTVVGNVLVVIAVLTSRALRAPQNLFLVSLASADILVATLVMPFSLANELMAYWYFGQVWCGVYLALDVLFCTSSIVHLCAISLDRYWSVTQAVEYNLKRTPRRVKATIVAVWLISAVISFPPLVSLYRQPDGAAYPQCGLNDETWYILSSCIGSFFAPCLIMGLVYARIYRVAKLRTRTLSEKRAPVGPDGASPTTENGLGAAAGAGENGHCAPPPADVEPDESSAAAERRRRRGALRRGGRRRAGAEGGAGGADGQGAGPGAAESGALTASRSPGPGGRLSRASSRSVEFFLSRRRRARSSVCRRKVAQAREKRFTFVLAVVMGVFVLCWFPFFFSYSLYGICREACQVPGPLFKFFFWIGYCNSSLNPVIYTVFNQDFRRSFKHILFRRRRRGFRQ

Consider `COc1ccc(C2NCCc3c2[nH]c2ccc(Cl)cc32)c(O)c1` (stereo not given), for which the Ki in test [1] came out at 1750 nM; in test [3], 609 nM; in [5] it was 2790 nM; in test [8] it was 1250 nM; in test [10] it was 177 nM; in [11], 4.53 nM. Besides, the inhibition in test [2] is less than 50%; in test [4], less than 50%; in test [6] (filed as agonist, concentration not given here), less than 50%; in test [12], less than 50%; in [13], less than 50%; in test [14] it was less than 50%. Also, the EC50 turned out to be 3.1 nM in test [7] (read-out: EC50) and 8.3 nM in test [9]. In addition, the Emax in test [15] turned out to be 100%.
As to `COc1cc(OC)c(C2NCCc3c2[nH]c2ccc(Cl)cc32)cc1OC` (stereo not given), the Ki in [1] was 666 nM; in test [5], 2780 nM; in test [10], 69.5 nM; in [11], 2.93 nM; in test [17] it was 1470 nM. The inhibition in test [2], in test [4], in [16], in test [13] and in test [14] was less than 50% throughout. Further, the values for the EC50 in test [7] (read-out: EC50) and in [9] were 0.58 nM and 1.7 nM, respectively. The Emax in [15] is 98.4%.
`COc1ccc(C2NCCc3c2[nH]c2ccc(F)cc32)c(O)c1` (stereo not given): the Ki came to 1410 nM in test [1]; 362 nM in test [3]; 1840 nM in [6]; 229 nM in test [10]; 4.42 nM in [11]. The inhibition in test [2], in test [4], in [18], in test [12], in test [19] and in [13] was less than 50% in each case. For the same molecule, the inhibition in [14] was less than 50%. Besides, the EC50 worked out at 1.3 nM in test [7] (read-out: EC50) and 3.2 nM in [9]. The Emax in test [15] came to 102%.
`COc1cc(OC)c(C2NCCc3c2[nH]c2ccc(F)cc32)cc1OC` (stereo not given): the inhibition in test [20], in test [2], in [22], in test [4], in test [18] and in [16] was less than 50% throughout. For the same molecule, the inhibition in test [13] and in test [14] was less than 50% each time. In addition, the Ki is 964 nM in test [21]; 2840 nM in test [10]; 55.7 nM in [11]; 961 nM in test [17]; 2330 nM in [23]. Besides, the EC50 in [7] (read-out: EC50) is 10 nM; in [7] (read-out: pEC50 (converted)), 11 nM; in [9] it was 39 nM. In addition, the Emax in [15] is 97.1%.
